# From publication PMC4277828 (BMC Pharmacology & Toxicology, 2014)
# “And” between values parts separate entries of the source, which are not always exact repeats. Equal values may be shown once. “Also recorded” adds a separate entry of the source. Read-outs that look alike come from different tables or passages of the source. Marks after values point to notes of the source that are not given here.
# Experiments:
# [1] = in vivo, 300 mg
# [2] = human, in vivo
# [3] = Tolerability and safety of rifabutin and LPV/r: clinical and laboratory adverse events (DAIDS grading)
# [4] = clinical; conditions: human, plasma, oral, 300 mg
# [5] = design: method as in PMID 15844071; conditions: cited from earlier work
# [6] = Steady-state plasma pharmacokinetics of rifabutin and 25-O-desacetylrifabutin with and without LPV/r-based ART (three-period crossover, LC/MS/MS, non-compartmental analysis); conditions: for AUC(0-t): human, plasma, oral, median (interquartile range), n = 14
# [7] = Steady-state plasma pharmacokinetics of lopinavir given with two rifabutin doses (LCMS/MS, non-compartmental analysis); conditions: for AUC(0-t): human, plasma, oral, Median (Interquartile range), 14 patients
# [8] = RBT dose at time of AE 150 mg daily (with LPV/r ART), listed as RBT
# [9] = RBT dose at time of AE 150 mg tiw (with LPV/r ART), listed as RBT
# [10] = sixteen patients, all rifabutin doses
compound,measurement,setting,value
25-O-desacetylrifabutin [d-RBT],AUC0–48,[1],546.6 (471.4-688.2)^* ng.h/mL
same,Association between plasma concentration and adverse events such as neutropenia or elevated transaminases,[2],unable to show a significant association
"CO[C@H]1/C=C/O[C@@]2(C)Oc3c(C)c(O)c4c(c3C2=O)C2=NC3(CCN(CC(C)C)CC3)NC2=C(NC(=O)/C(C)=C\C=C\[C@H](C)[C@H](O)[C@@H](C)[C@@H](O)[C@@H](C)[C@H](OC(C)=O)[C@@H]1C)C4=O [Rifabutin, rifabutin]","AE (grade 3 laboratory adverse event, individual subject)",[3]; [8],Neutropenia; also recorded: AST increased; also recorded: Amylase increased
same,Days on RBT at grade 3 laboratory AE (individual subject),[3]; [8],53 days and 77 days and 106 days and 113 days and 57 days
same,"AE (grade 3 laboratory adverse event, individual subject)",[3]; [9],AST increased; also recorded: Amylase increased; also recorded: Neutropenia
same,Days on RBT at grade 3 laboratory AE (individual subject),[3]; [9],96 days and 119 days and 112 days
same,"AE (grade 3 laboratory adverse event, individual subject)",[3]; RBT dose at time of AE 300 mg daily,Neutropenia
same,Days on RBT at grade 3 laboratory AE (individual subject),"[3]; RBT dose at time of AE 300 mg daily, listed as RBT",29 days and 27 days and 28 days
same,Grade 4 laboratory toxicities / events,"[3]; all doses, sixteen patients",no grade 4 laboratory toxicities
same,Tolerability,"[3]; all doses, sixteen patients",well tolerated
same,Grade 4 laboratory toxicities / events,"[3]; all doses, sixteen patients, listed as rifabutin",no grade 4 laboratory events
same,Association between plasma concentration and adverse events such as neutropenia or elevated transaminases,"[3]; human, in vivo",unable to show a significant association
same,Uveitis,"[3]; patient taking rifabutin 300 mg daily, after 1 month of rifabutin, prior to / coinciding with start of ART",One case of uveitis (grade 4); also recorded: Grade 2 uveitis occurred in one patient
same,Serious adverse events,[3]; sixteen patients,"two serious adverse events (bacterial meningitis and pyelonephritis), both considered unrelated to rifabutin"
same,"Grade 3 elevations in transaminases and amylase, number",[3]; [10],2
same,"Grade 3 neutropenia, number of occasions",[3]; [10],7 occasions
same,"Grade 3 neutropenia, number of patients",[3]; [10],4 patients and 5 patients
same,Cmax,[4],292 ng/mL
same,Patients who relapsed or failed therapy that developed ARR,[5]; TB-HIV co-infected patients with AUC0–24 < 4.5 μg.h/mL,83%
same,Patients who relapsed or failed therapy that developed ARR,[5]; TB-HIV co-infected patients with AUC above the threshold of 4.5 μg.h/mL,33%
same,GMR (90% CI) of Cmin24h,[6]; RBT 150 mg daily (with LPV/r ART) with RBT 300 mg daily,2.7 (2.2 – 3.2)
same,GMR (90% CI) of Cmin24h,[6]; RBT 150 mg tiw (with LPV/r ART) with RBT 300 mg daily,1.2 (1.0 – 1.4)
same,GMR (90% CI) of Cmin24h,[6]; RBT 150 mg tiw with RBT 150 mg daily (both with LPV/r ART),0.5 (0.4 – 0.5)
same,Increase in AUC0–24,"[6]; daily dose of 150 mg compared to the three times a week dose, both with LPV/r",more than two fold increase
same,AUC(0-t),"[6]; 150 mg, AUC0–24, Rifabutin 150 mg daily plus LPV/r, steady state",4770 ng·h/mL
same,AUC(0-t),"[6]; 150 mg, AUC0–24, Rifabutin 150 mg tiw plus LPV/r, steady state",2310 ng·h/mL
same,AUC(0-t),"[6]; 150 mg, AUC0–48, Rifabutin 150 mg daily plus LPV/r, calculated by 2X AUC0–24",9530 ng·h/mL
same,AUC(0-t),"[6]; 300 mg, AUC0–24, Rifabutin 300 mg daily without LPV/r, steady state",3050 ng·h/mL
same,AUC(0-t),"[6]; 300 mg, AUC0–48, Rifabutin 300 mg daily without LPV/r, calculated by 2X AUC0–24",6110 ng·h/mL
same,Patients with AUC0–24 values >4.5 μg.h/mL,[6]; rifabutin 150 mg daily with LPV/r,71%
same,Patients with AUC0–24 values >4.5 μg.h/mL,[6]; rifabutin tiw dosing with LPV/r,14%
same,Patients with AUC0-24 < 4.5 μg.h/mL,[6]; tiw rifabutin arm (150 mg tiw with LPV/r),86%
Cc1cccc(C)c1OCC(=O)N[C@@H](Cc1ccccc1)[C@@H](O)C[C@H](Cc1ccccc1)NC(=O)[C@H](C(C)C)N1CCCNC1=O [lopinavir],Median lopinavir trough (C0) concentrations versus recommended lower limit for ART-naïve patients,[7]; both rifabutin doses,> 1 µg
same,AUC(0-t),"[7]; AUC0–12, RBT 150 mg daily plus LPV/r (400/100 mg)",160000 ng·h/mL
same,AUC(0-t),"[7]; AUC0–12, RBT 150 mg tiw plus LPV/r (400/100 mg)",140000 ng·h/mL
same,Differences in AUC0–12 and Cmax between the two doses of rifabutin,[7]; rifabutin 150 mg daily versus 150 mg tiw,not significant
